“Also recorded” adds a separate entry of the source. Where two headings read alike, the source gives them in different places. Each block holds one compound with its values, some of them ahead of it.
Columns and labels:
[1] = trapping of methylglyoxal by albumin; settings: 0.1 M phosphate buffer pH 7.4, 37° C., 50 μl of 100 mg/ml
Protocol: (§1) A solution (50 μl) consisting of glyoxal, methylglyoxal, and 3-deoxyglucosone (1 mM each) was further mixed with 400 μl of 0.1 M phosphate buffer (pH 7.4), 50 μl of 100 mg/ml bovine serum albumin solution, and the resulting mixture was incubated at 37° C. After the incubation, glyoxal, methylglyoxal, and 3-deoxyglucosone were converted to quinoxaline derivatives by using o-phenylenediamine, and then the respective concentrations were determined by high performance liquid chromatography.

[2] = trapping of glyoxal by albumin; settings: 0.1 M phosphate buffer pH 7.4, 37° C., 50 μl of 100 mg/ml
Protocol: as §1

[3] = trapping of methylglyoxal by guanidine, aminoguanidine and biguanide agents; settings: 0.1 M phosphate buffer pH 7.4, 37° C., agent 50 μl of 30 mM
Protocol: as §1, with “A mixture” for “A solution”, “μl)” for “μl) consisting”, “7.4), and each (50 μl; 30 mM)” for “7.4), 50 μl”, “of guanidine, aminoguanidine, or a biguanide agent. The” for “of 100 mg/ml bovine serum albumin solution, and the”, “C. Biguanide agents used were metformin, buformin, and phenformin.” for “C.”

[4] = subcutaneously administered, rat; cited from earlier work
[5] = amount of carbonyl compounds other than glucose in peritoneal dialysate (CAPD) effluent, 2,4-DNPH assay; set-up: species or system human; settings: effluent, 0, 10, 50, 250 mM, unincubated and incubated (37° C. for 15 hours)
Protocol: The peritoneal dialysate effluent was recovered from the patient and filtered with a filter with a pore size of 0.45 μm. Aminoguanidine (Tokyo Kasei Kogyo Co.) was added to the fluid at a concentration of 0, 10, 50, or 250 mM to prepare a sample solution. An aliquot (1 ml) of the sample solution was added into a plastic tube with a screw cap, and the tube was incubated at 37° C. for 15 hours. The sample solutions were stored at −30° C. prior to the incubation.
Each of 400-μl aliquots of sample solutions was mixed with a 400-μl solution of 0.5 N hydrochloric acid containing 1.5 mM 2,4-DNPH (Wako Pure Chemical Industries, Ltd.), and then, the mixture was stirred at room temperature for 30 minutes to react the carbonyl compound with 2,4-DNPH. […] The aqueous layer was recovered and the absorbance thereof was measured at 360 nm in a spectrophotometric microplate reader (Nippon Molecular Devices Co.; SPECTRAmax250).
Aqueous solutions of various glucose concentrations were prepared and the amounts of carbonyl compounds derived from glucose were measured by the same method as described in (i); a calibration curve of glucose concentration vs. concentration of carbonyl compound was prepared based on this experiment.
Respective glucose concentrations of the samples were determined by using a glucose assay kit (Wako Pure Chemical Industries, Ltd.; Glucose CII-Test Wako). […]

[6] = generation of carbonyl compounds in peritoneal dialysate during heat sterilization (2,4-DNPH); settings: acidic and neutral pH, sterilization 121° C.
From the text: (§2) Peritoneal dialysates contain a high concentration of glucose as an osmoregulatory agent (1.35-4.0 w/v %). Glucose is unstable to heating and undergoes degradation during heat sterilization or storage. Degradation products of glucose have been reported to include 5-hydroxymethylfurfural (5-HMF), levulinic acid, and acetaldehyde (Richard, J. U. et al., Fund. Appl. Toxic., 4: 843-853 (1984), Nilsson, C. B. et al., Perit. Dial. Int., 13: 208-213 (1993)). The inventors tested aminoguanidine for its inhibiting effect on the generation of carbonyl compounds during heat sterilization of a peritoneal dialysate, by monitoring the quantities of 5-HMF and carbonyl compounds. Since the degree of glucose degradation is affected by pH of the solution, two peritoneal dialysates of acidic pH (pH 5.3) and neutral pH (pH 7.0) were prepared to carry out the experiment. Sterilization temperature was 121° C.
Quantification of carbonyl compounds in the peritoneal dialysate was carried out in the same manner as described in Example 1 by measuring the absorbance after the reaction with 2,4-DNPH (Levine, R. L. et al., Methods Enzymol., 233: 346-357 (1994)). Sterilization temperature was 121° C.

[7] = trapping of 3-deoxyglucosone by guanidine, aminoguanidine and biguanide agents; settings: 0.1 M phosphate buffer pH 7.4, 37° C., agent 50 μl of 30 mM
Protocol: as §1, with “A mixture” for “A solution”, “μl)” for “μl) consisting”, “7.4), and each (50 μl; 30 mM)” for “7.4), 50 μl”, “of guanidine, aminoguanidine, or a biguanide agent. The” for “of 100 mg/ml bovine serum albumin solution, and the”, “C. Biguanide agents used were metformin, buformin, and phenformin.” for “C.”

[8] = subcutaneously administered, mouse; cited from earlier work
[9] = generation of 5-HMF in peritoneal dialysate during heat sterilization (HPLC); settings: sterilization 121° C.
From the text: as §2
5-HMF was assayed by high performance liquid chromatography (SHIMADZU Co.; LC-10A) (Nilsson, C. B. et al., Perit. Dial. Int., 13: 208-213 (1993)).

[10] = generation of pentosidine on incubation of peritoneal dialysis effluent; set-up: species or system human; settings: peritoneal dialysis effluent, 0, 1, 10, 100 mM, 37° C.
Protocol: An effluent from a peritoneal-dialysis patient, which had been kept overnight, was centrifuged, and the resulting supernatant was sterilized by filtration (pore size; 0.45 μm). Aminoguanidine (Tokyo Kasei Kogyo Co.) was added to the fluid at a final concentration of 0, 1, 10, or 100 mM. The mixture was incubated at 37° C. The incubation period was […] when assaying pentosidine, and 2 weeks when assaying protein carbonyl. The quantitative assay for pentosidine was performed using HPLC (SHIMADZU Co.; LC-10A) after the hydrolysis of proteins in 6 N HCl at 110° C. (T. Miyata et al., 1996, J. Am. Soc. Nephrol, 7:1198-1206; T. Miyata et al., 1996, Proc. Natl. Acad. Aci. USA, 93:2353-2358). The quantitative determination of protein carbonyl was carried out by measuring the absorbance (Nippon Molecular Devices Co.; SPECTRAmax 250) of hydrazone generated by the reaction of a carbonyl group after incubation with 2,4-dinitrophenylhydrazine (2,4-DNPH; Wako Pure Chemical Industries, Ltd.) (Levine, R. L. et al., Methods Enzymol., 233, 346-357 (1994)).

VEGF mRNA [11] = assay: VEGF mRNA expression in human endothelial cells (RT-PCR); assay type: cell-based; settings: 0 to 400 μM
Protocol: VEGF mRNA expression was then assessed in endothelial cells cultured in the presence of various concentrations (0 to 400 μM) of methylglyoxal. Experiments were performed as those for rat mesothelial cells. However, primers used for human VEGF amplification were 5′-[…]-3′ (SEQ ID NO: 5) and 5′-[…]-3′ (SEQ ID NO: 6). The amplified fragment was 271 bp long. The same primers were used for human and rat G3PDH amplifications.

VEGF mRNA [12] = assay: VEGF mRNA expression and histology of peritoneal tissue of rats given daily intraperitoneal injections; assay type: in vivo, rat; settings: daily intraperitoneal injection for 10 days
Protocol: To further assess the biological effects of methylglyoxal on VEGF mRNA expression in the peritoneum in vivo, rats were given various amounts of methylglyoxal into their peritoneal cavity for 10 days. Six-week-old male CD (SD) IGS rats were given a daily intraperitoneal injection of 50 ml/kg of a saline solution containing various concentrations of methylglyoxal for 10 days. Peritoneum was isolated from the parietal walls and investigated for VEGF mRNA expression. Experiments were performed as the above-mentioned in vitro experiments for rat mesothelial cells. However, mRNA was extracted from peritoneal tissues with ISOGEN (Nippon Gene, Tokyo, Japan). In addition, PCR amplification was performed for 28 cycles for VEGF mRNA and for 16 cycles for G3PDH mRNA.

VEGF protein = VEGF protein release into culture supernatant (ELISA); assay type: cell-based; settings: human microvascular endothelial cells, 0, 200, 400 μM, 24 hours
Protocol: The release of VEGF protein into the culture supernatant was measured by ELISA for […] cultured for 24 hours in the presence of various concentrations of methylglyoxal. Human microvascular endothelial cells were purchased from Kurabo (Osaka, Japan) and cultured in VEGF-depleted EGM-2 medium (Takara, Tokyo, Japan). The cells were incubated with methylglyoxal in the same manner as rat peritoneum mesothelial cells. The VEGF protein in the culture supernatant prepared in duplicate was quantified by enzyme-linked immunosorbent assay (ELISA) using a kit (Quantikine: R&D Systems, Minneapolis, USA) according to the attached manual. The experiment was repeated three times. The results were statistically analyzed as described above.

VEGF mRNA [13] = assay: VEGF mRNA expression in cultured rat mesothelial cells (semiquantitative RT-PCR); assay type: cell-based; settings: 3 hours
Protocol: Peritoneum was obtained from 6-week-old male CD (SD) IGS rats (Charles-River, Kanagawa, Japan). Mesothelial cells were isolated based on the method of Hjelle et al. (Hjelle J T et al., Perit Dial Int, 9: 341-347 (1989)) and cultured in Dulbecco's modified Eagle's medium (DMEM) containing 10% fetal bovine serum. The mesothelial cells at passage 7 to 10 were cultured for 3 hours in a CO2 incubator in the presence of various concentrations of glucose degradation products (glyoxal, methylglyoxal (Sigma, St. Louis, Mo.), or 3-deoxyglucosone (kindly provided from Fuji Memorial Research Institute, Otsuka Pharmaceutical Co., Kyoto, Japan). The expression of VEGF mRNA was analyzed by semiquantitative RT-PCR. Total RNA was isolated from the mesothelial cells using Rneasy Mini Kit (Qiagen, Germany). Five micrograms of the RNA was reverse-transcribed using oligo(dT)12-18 primers (Gibco BRL, Gaithersburg, Md.) with 200 units of RNase H-free reverse transcriptase (Superscript II: Gibco BRL) and PCR amplification was performed as described previously (Miyata T et al., J Clin Invest, 93: 521-528 (1994)). The sequences of the primers used for the amplification of rat VEGF were 5′-[…]-3′ (SEQ ID NO: 1) and 5′-[…]-3′ (SEQ ID NO: 2). The amplified product was 310 bp long. The primers used for the amplification of rat glyceraldehyde-3-phosphate dehydrogenase. (G3PDH) were 5′-[…]-3′ (SEQ ID NO: 3) and 5′-[…]-3′ (SEQ ID NO: 4) and amplified a 322 bp fragment. The G3PDH served as an internal RNA control to allow comparison of RNA levels among different specimens. […] PCR products resolved by electrophoresis in 1.5% agarose gel and stained with ethidium bromide were quantified by measuring the signal intensity with a quantification program (NIH image). […] Messenger RNA was determined in triplicate and the results were averaged for each experiment. […] The results were averaged and expressed as mean±S.D. The statistical significance was evaluated by analysis of variance (ANOVA). […]

Compound: Bovine serum albumin: bovine serum albumin solution, 100 mg/ml; SH group-containing protein
concentration of methylglyoxal [1]: markedly reducing the concentrations of glyoxal and methylglyoxal
concentration of glyoxal [2]: markedly reducing the concentrations of glyoxal and methylglyoxal

Compound: N=C(N)N [Guanidine, guanidine]
concentration of methylglyoxal [3]: markedly reducing the concentration of methylglyoxal

Compound: N=C(N)NN [aminoguanidine]
half-lethal dose [4]: 1258 mg/kg
amounts of carbonyl compounds other than glucose [5]: decreased
generation of carbonyl compounds [6]: effectively inhibited the generation of carbonyl compounds in a concentration-dependent manner
concentration of 3-deoxyglucosone [7]: markedly reducing the concentration of 3-deoxyglucosone
half-lethal dose [8]: 963 mg/kg
generation of 5-HMF ([9]; peritoneal dialysate acidic pH (pH 5.3)): effectively inhibited the generation of 5-HMF in a concentration-dependent manner
generation of 5-HMF ([9]; peritoneal dialysate neutral pH (pH 7.0)): effectively inhibited the generation of 5-HMF in a concentration-dependent manner
concentration of methylglyoxal [3]: markedly reducing the concentration of methylglyoxal; also recorded: drastically reduced the concentration of methylglyoxal
generation of pentosidine [10]: inhibit the generation of pentosidine in a concentration-dependent manner

peritoneal tissue on optical microscopy (VEGF mRNA [12]): unaffected
Compound: CC(=O)C=O [methylglyoxal]
VEGF mRNA expression (VEGF mRNA [11]): rose in a dose-dependent manner
VEGF mRNA expression in parietal peritoneum (VEGF mRNA [12]; P<0.05): increased significantly
VEGF protein released into culture supernatant (VEGF protein): dose-dependent increase of VEGF
VEGF mRNA expression (VEGF mRNA [13]; 400 μM, P<0.0005): stimulated VEGF mRNA expression

Compound: O=CC(=O)C[C@H](O)[C@H](O)CO [3-deoxyglucosone]
VEGF mRNA expression (VEGF mRNA [13]; 0 to 400 μM): neither glyoxal nor 3-deoxyglucosone modified VEGF expression

Compound: O=CC=O [glyoxal]
VEGF mRNA expression (VEGF mRNA [13]; 0 to 400 μM): neither glyoxal nor 3-deoxyglucosone modified VEGF expression

From patent publication US7297689B2, “Method for preparing peritoneal dialysate” (Tokai University Educational System, priority 1998, dated 2007)
